Test system: basophils in the whole blood cells
Assay: ratio of basophils in whole blood cells, Siemens Advia 120 (Example 14)
Type: in vivo, C57/BL6 mice
Conditions: 200 μl of 1% solution i.p., blood 16 hr later, vs saline
Procedure: About 3-month-old C57/BL6 mice were intraperitoneally injected with 200 μl of saline (control) or 1% solution of respective compounds (dissolved in saline). Blood was collected 16 hr later, and the ratio of basophils in the whole blood cells was measured using Siemens Advia 120.

Molecule | ratio of basophils in the whole blood cells
CC1(C)NCCS1 [2,2-Dimethylthiazolidine] | increases
CCc1nccnc1C(C)=O [2-Acetyl-3-ethylpyrazine] | increases
CC(=O)c1nccs1 [2-Acetylthiazole] | increases
Clc1nccs1 [2-Chlorothiazole] | increases
CCc1ccco1 [2-Ethylfuran] | increases
CCc1ccc[nH]1 [2-Ethylpyrrole] | increases
Cc1csc(C(C)C)n1 [2-Isopropyl-4-methylthiazole] | increases
Cc1nccs1 [2-Methylthiazole] | increases
CC(=O)c1cc(C)oc1C [3-Acetyl-2,5-dimethylfuran] | increases
CC(=O)c1cc(C)sc1C [3-Acetyl-2,5-dimethylthiophene] | increases
Clc1ccsc1 [3-Chlorothiophene] | increases
Cc1ccsc1 [3-Methylthiophene] | increases
CC(=O)c1sc(C)nc1C [5-Acetyl-2,4-dimethylthiazole] | increases

Test system: neutrophils in the whole blood cells
Assay: ratio of neutrophils in whole blood cells, Siemens Advia 120 (Examples 12, 13)
Type: in vivo, C57/BL6 mice
Conditions: 200 μl of 1% solution i.p., blood 16 hr later, vs saline
Procedure: About 3-month-old C57/BL6 mice were intraperitoneally injected with 200 μl of saline (control) or 1% solution of respective compounds (dissolved in saline). Blood was collected 16 hr later, and the ratio of neutrophils in the whole blood cells was measured using Siemens Advia 120.

Molecule | ratio of neutrophils in the whole blood cells
2-Methyl-(3 or 5 or 6)-methylthio pyrazine [2-Methyl-(3 or 5 or 6)-methylthio pyrazine (mixture of isomers)] | increases
c1coc(Cn2cccc2)c1 [1-Furfurylpyrrole] | increases
CC1(C)NCCS1 [2,2-Dimethylthiazolidine] | increases
CCc1nccnc1CC [2,3-Diethylpyrazine] | increases
Cc1nc(C)c(C)s1 [2,4,5-Trimethylthiazole] | increases
Cc1c[nH]c(C)c1 [2,4-Dimethylpyrrole] | increases
CSC1=NCCS1 [2-(Methylthio)-2-thiazoline] | increases
CSc1nc2ccccc2s1 [2-(Methylthio)benzothiazole] | increases
CC(=O)c1cccn1C [2-Acetyl-1-methylpyrrole] | increases
CCc1nccnc1C(C)=O [2-Acetyl-3-ethylpyrazine] | increases
CC(=O)c1ccc[nH]1 [2-Acetylpyrrole] | increases
CC(=O)c1nccs1 [2-Acetylthiazole] | increases
Clc1nccs1 [2-Chlorothiazole] | increases
CCOc1nccs1 [2-Ethoxythiazole] | increases
CCc1ccc[nH]1 [2-Ethylpyrrole] | increases
CCCCCCc1cccs1 [2-Hexylthiophene] | increases
CC(C)Cc1nccs1 [2-Isobutylthiazole] | increases
Cc1csc(C(C)C)n1 [2-Isopropyl-4-methylthiazole] | increases

Molecule | ratio of neutrophils in the whole blood cells
Cc1nccs1 [2-Methylthiazole] | increases
CC1CNCCS1 (centres unmarked) [2-Methylthiomorpholine] | increases
Cc1cccs1 [2-Methylthiophene] | increases
CCC(=O)c1cccs1 [2-Propionyl thiophene] | increases
O=C1CSc2ccccc2N1 [2H-1,4-benzothiazin-3(4H)one] | increases
CC(=O)c1cc(C)sc1C [3-Acetyl-2,5-dimethylthiophene] | increases
CC(=O)c1cccnc1 [3-Acetylpyridine] | increases
Clc1ccsc1 [3-Chlorothiophene] | increases
Cc1cc[nH]c1 [3-Methylpyrrole] | increases
Cc1ncsc1C [4,5-Dimethylthiazole] | increases
CSC1CSC=N1 (centres unmarked) [4-(Methylthio)-2-thiazoline] | increases
C=CCCCN=C=S [4-Pentenyl Isothiocyanate] | increases
CC(=O)c1sc(C)nc1C [5-Acetyl-2,4-dimethylthiazole] | increases
C1CCCNCC1 [Azepane] | increases
c1ccc2sccc2c1 [Benzothiophene] | increases
S=C=NCc1ccccc1 [Benzyl isothiocyanate] | increases
C=C(C)CN=C=S [Methallyl isothiocyanate] | increases
c1cscn1 [Thiazole] | increases

Test system: neutrophils in the peripheral blood
Assay: number of neutrophils in peripheral blood, Siemens Advia 120 (Examples 4, 5)
Type: in vivo, C57/BL6 mice
Conditions: 200 μl of 1% solution i.p., blood 16 hr later, vs saline
Procedure: About 3-month-old C57/BL6 mice were intraperitoneally injected with 200 μl of saline (control) or 1% solution of respective compounds (dissolved in saline). Blood was collected 16 hr later, and the number of neutrophils in the peripheral blood was measured using Siemens Advia 120.

Molecule | neutrophils in the peripheral blood (number)
CCc1nccnc1CC [2,3-Diethylpyrazine] | increase
CSC1=NCCS1 [2-(Methylthio)-2-thiazoline] | increase
CSc1nc2ccccc2s1 [2-(Methylthio)benzothiazole] | increase
CC(=O)c1cccn1C [2-Acetyl-1-methylpyrrole] | increase
CC(=O)c1ccc[nH]1 [2-Acetylpyrrole] | increase
CCOc1nccs1 [2-Ethoxythiazole] | increase
CCc1cccs1 [2-Ethylthiophene] | increase
CCCCCCc1cccs1 [2-Hexylthiophene] | increase
CC1=NC(CC(C)C)SC1C (centres unmarked) [2-Isobutyl-4,5-dimethyl-3-thiazoline] | increase
CC1CNCCS1 (centres unmarked) [2-Methylthiomorpholine] | increase
O=C1CSc2ccccc2N1 [2H-1,4-benzothiazin-3(4H)one] | increase
CSCCCN=C=S [3-(Methylthio)propyl isothiocyanate] | increase
CC(=O)c1cc(C)sc1C [3-Acetyl-2,5-dimethylthiophene] | increase
CC(=O)c1cccnc1 [3-Acetylpyridine] | increase
Clc1ccsc1 [3-Chlorothiophene] | increase
Cc1ncsc1C [4,5-Dimethylthiazole] | increase
CSC1CSC=N1 (centres unmarked) [4-(Methylthio)-2-thiazoline] | increase
C=CCCCN=C=S [4-Pentenyl Isothiocyanate] | increase
Cc1nc(C(C)(C)C)cs1 [4-tert-Butyl-2-methylthiazole] | increase
CC(=O)c1sc(C)nc1C [5-Acetyl-2,4-dimethylthiazole] | increase
C1CCCNCC1 [Azepane] | increase
c1ccc2sccc2c1 [Benzothiophene] | increase
S=C=NCc1ccccc1 [Benzyl isothiocyanate] | increase
CC(C)N=C=S [Isopropyl isothiocyanate] | increase
C=C(C)CN=C=S [Methallyl isothiocyanate] | increase
O=C1CSC(=O)N1 [Thiazolidine-2,4-dione] | increase

Test system: monocytes in the whole blood cells
Assay: ratio of monocytes in whole blood cells, Siemens Advia 120 (Examples 10, 11)
Type: in vivo, C57/BL6 mice
Conditions: 200 μl of 1% solution i.p., blood 16 hr later, vs saline
Procedure: About 3-month-old C57/BL6 mice were intraperitoneally injected with 200 μl of saline (control) or 1% solution of respective compounds (dissolved in saline). Blood was collected 16 hr later, and the ratio of monocytes in the whole blood cells was measured using Siemens Advia 120.
About 3-month-old C57/BL6 mice were intraperitoneally injected with 200 μl of saline (control) or 1% allyl isothiocyanate solution (dissolved in saline). Blood was collected 16 hr later, and the ratio of monocytes in the whole blood cells was measured using Siemens Advia 120.

Molecule | ratio of monocytes in the whole blood cells
2-Methyl-(3 or 5 or 6)-methylthio pyrazine [2-Methyl-(3 or 5 or 6)-methylthio pyrazine (mixture of isomers)] | increases
CC1NCCSC1C (centres unmarked) [2,3-Dimethylthiomorpholine] | increases
CCc1nccnc1C(C)=O [2-Acetyl-3-ethylpyrazine] | increases
CCOc1nccs1 [2-Ethoxythiazole] | increases
Cc1cc2ccccc2[nH]1 [2-Methylindole] | increases
CC(=O)c1cc(C)sc1C [3-Acetyl-2,5-dimethylthiophene] | increases
Clc1ccsc1 [3-Chlorothiophene] | increases
Cc1ncsc1C [4,5-Dimethylthiazole] | increases
CSC1CSC=N1 (centres unmarked) [4-(Methylthio)-2-thiazoline] | increases
C1CCCNCC1 [Azepane] | increases
C1CSCCN1 [Thiomorpholine] | increases

From patent publication US20230149420A1, “ANTI-INFLAMMATORY IMMUNOENHANCER” (SCENT SCIENCE INTERNATIONAL INC., priority 2020, published 2023)
